Several values for one entry are separate records, joined by “and”; a condition that tells them apart may be missing. Identical values can stand only once. Results filed as inconclusive are left out.
Tested on: CD8F1 mice, subcutaneous mammary adenocarcinoma, T/C%
Experiment: NCI In Vivo Anticancer Drug Screen. Data for tumor model Mammary Adenocarcinoma CD8F1 (subcutaneous) in CD8F1
Details: higher = larger tumour
How it was run: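 Tumor-bearing mice, transplantable model; readout survival or tumor size; value = treated (T) / vehicle control (C).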

[1] = endpoint: median tumor weight change, dose: 62.5 mg/kg/injection, schedule: Q01DX001 (ip), vehicle: saline with Tween-80
[2] = endpoint: median tumor weight change, dose: 125.0 mg/kg/injection, schedule: Q01DX001 (ip), vehicle: saline with Tween-80
[3] = endpoint: median tumor weight change, dose: 250.0 mg/kg/injection, schedule: Q01DX001 (ip), vehicle: saline with Tween-80

Compound: CO[C@H](C(=O)[C@@H](O)[C@@H](C)O)[C@@H]1Cc2cc3cc(OC4CC(OC5CC(O)C(O)C(C)O5)C(O)C(C)O4)c(C)c(O)c3c(O)c2C(=O)[C@H]1OC1CC(OC2CC(OC3CC(C)(O)C(O)C(C)O3)C(O)C(C)O2)C(O)C(C)O1 (some centres undefined)
- T/C (endpoint: median tumor weight (est.), dose: 0.25 mg/kg/injection, schedule: Q07DX006 (ip), vehicle: saline): 76 % of control
- T/C (endpoint: median tumor weight (est.), dose: 0.5 mg/kg/injection, schedule: Q07DX006 (ip), vehicle: saline): 104 % of control
- T/C (endpoint: median tumor weight (est.), dose: 1.0 mg/kg/injection, schedule: Q07DX006 (ip), vehicle: saline): 78 % of control

Compound: CCOC(=O)c1c[nH]c2oc(/C=N/N3CC(CN4CCOCC4)OC3=O)cc2c1=O (centres undefined)
- T/C (endpoint: median tumor weight (est.), dose: 12.5 mg/kg/injection, schedule: Q07DX005 (ip), vehicle: suspension in saline): 107 % of control
- T/C (endpoint: median tumor weight (est.), dose: 25.0 mg/kg/injection, schedule: Q07DX005 (ip), vehicle: suspension in saline): 87 % of control
- T/C (endpoint: median tumor weight (est.), dose: 50.0 mg/kg/injection, schedule: Q07DX005 (ip), vehicle: suspension in saline): 97 % of control
- T/C (endpoint: median tumor weight (est.), dose: 100.0 mg/kg/injection, schedule: Q07DX005 (ip), vehicle: suspension in saline): 155 % of control
- T/C (endpoint: median tumor weight (est.), dose: 400.0 mg/kg/injection, schedule: Q07DX005 (ip), vehicle: suspension in saline): 94 % of control

Compound: COC(=O)C(F)C(Br)C(=O)OC (centres undefined)
- T/C (endpoint: median tumor weight (est.), dose: 6.25 mg/kg/injection, schedule: Q07DX005 (ip), vehicle: saline with Tween-80): 61 % of control
- T/C (endpoint: median tumor weight (est.), dose: 12.5 mg/kg/injection, schedule: Q07DX005 (ip), vehicle: saline with Tween-80): 87 % of control
- T/C (endpoint: median tumor weight (est.), dose: 25.0 mg/kg/injection, schedule: Q07DX005 (ip), vehicle: saline with Tween-80): 106 % of control
- T/C (endpoint: median tumor weight (est.), dose: 50.0 mg/kg/injection, schedule: Q07DX005 (ip), vehicle: saline with Tween-80): 74 % of control
- T/C (endpoint: median tumor weight (est.), dose: 100.0 mg/kg/injection, schedule: Q07DX005 (ip), vehicle: saline with Tween-80): 77 % of control

Compound: CCC1(O)CC2CN(CCc3c([nH]c4ccccc34)C(C(=O)OC)(c3cc4c(cc3OC)N(C)C3C(O)(C(=O)NCCSSCCNC(=O)C5(O)C(O)C6(CC)C=CCN7CCC8(c9cc(C%10(C(=O)OC)CC%11CN(CCc%12c%10[nH]c%10ccccc%12%10)CC(O)(CC)C%11)c(OC)cc9N(C)C58)C76)C(O)C5(CC)C=CCN6CCC43C65)C2)C1 (centres undefined)
- T/C (endpoint: median tumor weight change, dose: 1.9 mg/kg/injection, schedule: Q01DX001 (ip), vehicle: saline): 45 % of control

Compound: CN(C)CCN1C(=O)c2cccc3cc(N)cc(c23)C1=O
- T/C (endpoint: median tumor weight change, dose: 10.0 mg/kg/injection, schedule: Q01DX001 (ip), vehicle: saline with Tween-80): 81 % of control and 92 % of control
- T/C (endpoint: median tumor weight change, dose: 40.0 mg/kg/injection, schedule: Q01DX001 (ip), vehicle: saline with Tween-80): 42 % of control and 44 % of control and 61 % of control

Compound: O=C(CN1CCOCC1)Nc1nc(-c2ccc(Cl)cc2)cs1
- T/C (endpoint: median tumor weight change, dose: 50.0 mg/kg/injection, schedule: Q01DX001 (ip), vehicle: saline with Tween-80): 47 % of control
- T/C (endpoint: median tumor weight change, dose: 100.0 mg/kg/injection, schedule: Q01DX001 (ip), vehicle: saline with Tween-80): 20 % of control
- T/C (endpoint: median tumor weight change, dose: 200.0 mg/kg/injection, schedule: Q01DX001 (ip), vehicle: saline with Tween-80): 49 % of control
- T/C (endpoint: median tumor weight change, dose: 400.0 mg/kg/injection, schedule: Q01DX001 (ip), vehicle: saline with Tween-80): 35 % of control
- T/C (endpoint: median tumor weight change, dose: 800.0 mg/kg/injection, schedule: Q01DX001 (ip), vehicle: saline with Tween-80): 28 % of control

Compound: NC(CSC(c1ccccc1)(c1ccccc1)c1ccccc1)C(=O)O (centres undefined)
- T/C (endpoint: median tumor weight (est.), dose: 32.0 mg/kg/injection, schedule: Q07DX005 (ip), vehicle: Klucel (hydroxypropylcellulose) (HPC)): 101 % of control
- T/C (endpoint: median tumor weight (est.), dose: 64.0 mg/kg/injection, schedule: Q07DX005 (ip), vehicle: Klucel (hydroxypropylcellulose) (HPC)): 71 % of control
- T/C (endpoint: median tumor weight (est.), dose: 128.0 mg/kg/injection, schedule: Q07DX005 (ip), vehicle: Klucel (hydroxypropylcellulose) (HPC)): 74 % of control

Compound: O=C1CN(Cc2ccc3c(c2)OCO3)NO1
- T/C [1]: 80 % of control and 84 % of control
- T/C [2]: 113 % of control and 115 % of control
- T/C [3]: 80 % of control and 83 % of control
- T/C (endpoint: median tumor weight change, dose: 1000.0 mg/kg/injection, schedule: Q01DX001 (ip), vehicle: saline with Tween-80): 88 % of control

Compound: O=[N+]([O-])c1ccc(N2CCOCC2)c2c1no[n+]2[O-]
- T/C [1]: 100 % of control
- T/C [2]: 114 % of control
- T/C [3]: 43 % of control
- T/C (endpoint: median tumor weight change, dose: 500.0 mg/kg/injection, schedule: Q01DX001 (ip), vehicle: saline with Tween-80): 56 % of control

Compound: CC1OC1C(=O)C1(O)C(C)C(O)C23OC2(C(O)c2c(O)cccc2C3=O)C1O (centres undefined)
- T/C (endpoint: median tumor weight change, dose: 10.0 mg/kg/injection, schedule: Q01DX001 (ip), vehicle: Klucel (hydroxypropylcellulose) (HPC)): 84 % of control and 100 % of control and 107 % of control
- T/C (endpoint: median tumor weight change, dose: 40.0 mg/kg/injection, schedule: Q01DX001 (ip), vehicle: Klucel (hydroxypropylcellulose) (HPC)): 66 % of control and 87 % of control

Compound: Cn1cnc([N+](=O)[O-])c1[Se]c1nc(N)nc2nc[nH]c12
- T/C (endpoint: median tumor weight (est.), dose: 6.25 mg/kg/injection, schedule: Q07DX005 (ip), vehicle: water): 109 % of control
- T/C (endpoint: median tumor weight (est.), dose: 12.5 mg/kg/injection, schedule: Q07DX005 (ip), vehicle: water): 104 % of control
- T/C (endpoint: median tumor weight (est.), dose: 25.0 mg/kg/injection, schedule: Q07DX005 (ip), vehicle: water): 173 % of control
- T/C (endpoint: median tumor weight (est.), dose: 50.0 mg/kg/injection, schedule: Q07DX005 (ip), vehicle: water): 215 % of control
- T/C (endpoint: median tumor weight (est.), dose: 200.0 mg/kg/injection, schedule: Q07DX005 (ip), vehicle: water): 107 % of control

Compound: O=c1ssc(=Nc2ccccc2)n1-c1ccccc1
- T/C (endpoint: median tumor weight (est.), dose: 25.0 mg/kg/injection, schedule: Q07DX005 (ip), vehicle: Klucel (hydroxypropylcellulose) (HPC)): 119 % of control
- T/C (endpoint: median tumor weight (est.), dose: 50.0 mg/kg/injection, schedule: Q07DX005 (ip), vehicle: Klucel (hydroxypropylcellulose) (HPC)): 90 % of control
- T/C (endpoint: median tumor weight (est.), dose: 100.0 mg/kg/injection, schedule: Q07DX005 (ip), vehicle: Klucel (hydroxypropylcellulose) (HPC)): 70 % of control
- T/C (endpoint: median tumor weight (est.), dose: 200.0 mg/kg/injection, schedule: Q07DX005 (ip), vehicle: Klucel (hydroxypropylcellulose) (HPC)): 65 % of control
- T/C (endpoint: median tumor weight (est.), dose: 400.0 mg/kg/injection, schedule: Q07DX005 (ip), vehicle: Klucel (hydroxypropylcellulose) (HPC)): 69 % of control

Source: PubChem BioAssay AID220 (DTP/NCI, 2004)
